Assay results reported in patent publication US7964565B2, “Method of inhibiting inflammation in a mammal by administering Bcl protein” (University of Washington Center for Commercialization, a …, priority 2004, dated 2011).

B1: rA1: human A1 minus 25 amino acids at the carboxy terminal and addition of 6 histidine on the remaining protein (protein, listed as Homo sapiens)
chain: MTDCEFGYIYRLAQDYLQCVLQIPQPGSGPSKTSRVLQNVAFSVQKEVEKNLKSCLDNVNVVSVDTARTLFNQVMEKEFEDGIINWGRIVTIFAFEGILIKKLLRQQIAPDVDTYKEISYFVAEFIMNNTGEWIRQNGGWENGFVKKFEPKSHHHHHH

Assays:
[1] = test system: C57BL/6 mice, hind-limb skeletal muscle ischemia-reperfusion injury; assay: Hind-limb tourniquet ischemia-reperfusion, plasma creatine kinase; format: in vivo, mouse; details: tourniquet 90 min, reperfusion 3 hours
Method: Skeletal muscle was made ischemic by applying a tourniquet to the hind-limbs of C57BL/6 mice for 90 minutes, then removing the tourniquet and allowing reperfusion for an additional 3 hours. Mice were treated with active peptide 1 (SEQ ID NO:17) or peptide 2 (SEQ ID NO:18) or peptide 3 (SEQ ID NO:19), or with the scrambled (control) peptide (SEQ ID NO:20). Peptide-1 (SEQ ID NO:17) is from the BH4 region of Bcl-2. Peptide-2 (SEQ ID NO:18) is from the first alpha helix of A1. Peptide-3 (SEQ ID NO:19) is from the BH4 region of Bcl-XL. The amino acid sequences of peptide 1 (SEQ ID NO:17), peptide 2 (SEQ ID NO:18), peptide 3 (SEQ ID NO:19), and the scrambled (control) peptide (SEQ ID NO:20) are set forth in Table 1.
At the end of the 3 hours of reperfusion the mice were killed, and blood was taken for determination of plasma creatine kinase (CK) concentration. The CK concentration was used as an indicator of muscle injury. Elevated levels of CK indicate higher levels of muscle injury. […] The CK concentration for peptide 1 (SEQ ID NO:17) treated mice was 19,020+/−5481 IU/L (n=12) compared with control peptide (SEQ ID NO:20) where CK concentration was 60,530+/−5759 IU/L (n=12). The CK concentration for peptide 2 (SEQ ID NO:18) treated mice was 33,860+/−5997 IU/L (n=11) compared with control peptide (SEQ ID NO:20) where CK concentration was 69,430+/−11,170 IU/L (n=12). The CK concentration for peptide 3 (SEQ ID NO:19) treated mice was 49,500+/−3,901 IU/L (n=5) compared with control peptide (SEQ ID NO:20) where CK concentration was 80,880+/−11,430 IU/L (n=6).

[2] = test system: C57BL/6 mice, hind limb skeletal muscle ischemia-reperfusion injury; assay: Hind limb ischemia-reperfusion by aortic cross-clamp, plasma creatine kinase; format: in vivo; details: protein injected i.p. the day before 90 min hind limb ischemia and 180 min reperfusion; 12 mice per group; rBcl-2 1 μg per mouse vs combined rUbiquitin/vehicle; rA1 vs rUbiquitin
Method: Mouse skeletal muscle was made ischemic by cross-clamping the aorta distal to the renal artery for 90 minutes, then the clamp was removed and hind limb reperfusion continued for 3 hours. At the end of reperfusion (3 hours after clamp removal) the mice were killed, and the concentration of plasma creatine kinase (CK) was measured and used as an indicator of injury (creatine kinase concentration increases as a result of skeletal muscle injury).
Blood from EμT-Bcl-2 mice and their littermate control mice was drawn into heparin and plasma was extracted by centrifugation. One ml of plasma from EμT-Bcl-2 mice, or one ml of plasma from littermate control mice, was injected into the peritoneum of C57BL/6 mice the day before the mice were subjected to 90 minutes of ischemia and 3 hours of reperfusion as described in Example 1 herein. Blood was drawn from the mice and plasma CK concentration was determined at the end of reperfusion.
Control Jaws II cells expressed only EGFP. […]
Medium from cell cultures of hBcl-2-Jaws II cells and EGFP-Jaws II cells was harvested 24 hours after the start of incubation and concentrated approximately 10-fold using centrifugal filters with a molecular size cut-off of approximately 3 kD. […] Plasma was extracted from the mice after ischemia-reperfusion, and plasma CK concentration was determined. […]

[3] = experiment with peptide 2, n=11 peptide, n=12 control

Molecule | plasma CK concentration [1, 3] | plasma CK concentration ([1]; experiment with peptide 1, n=12 per group) | plasma CK concentration ([1]; experiment with peptide 3, n=5 peptide, n=6 control) | plasma creatine kinase levels vs control [2]
peptide 2: from the first alpha helix of A1; FGYIYRLAQDYLQCVLQIPZPGSGP (SEQ ID NO:18) | 33,860+/−5997 IU/L | – | – | –
control peptide: scrambled (control) peptide; TWHMYGNQRDYIGDRSKIVYKLEYE (SEQ ID NO:20) | 69,430+/−11,170 IU/L | 60,530+/−5759 IU/L | 80,880+/−11,430 IU/L | –
B1 | – | – | – | significantly (p<0.05) lower
